In patent US10689401B2, “C5-C6-oxacyclic fused iminothiazine dioxide compounds bearing an ether linker as BACE inhibitors, compositions, and their use” (Merck Sharp & Dohme Corp., priority 2016, dated 2020):

Key:
[1] = molecular target: Recombinant human soluble BACE1 catalytic domain (Homo sapiens (Human), UniProt P56817); test: BACE1 HTRF FRET Assay; format: biochemical; conditions: Ki calculated from IC50 using the Cheng-Prusoff equation; QSY7-APPswe-Eu substrate, pH 5.0; read-out: BACE-1 Ki
Sequence of Recombinant human soluble BACE1 catalytic domain (P56817 75-416): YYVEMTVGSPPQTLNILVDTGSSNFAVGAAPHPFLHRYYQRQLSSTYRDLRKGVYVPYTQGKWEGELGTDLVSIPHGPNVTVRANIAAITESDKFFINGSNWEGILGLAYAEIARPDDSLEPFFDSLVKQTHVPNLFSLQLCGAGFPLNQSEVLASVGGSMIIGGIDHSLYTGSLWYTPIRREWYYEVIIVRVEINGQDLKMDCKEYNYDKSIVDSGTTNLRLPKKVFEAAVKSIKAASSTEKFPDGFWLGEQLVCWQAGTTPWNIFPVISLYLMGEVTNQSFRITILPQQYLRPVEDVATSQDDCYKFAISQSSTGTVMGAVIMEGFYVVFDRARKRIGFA
Description: Reagents: Na^+-Acetate pH 5.0; 1% Brij-35; Glycerol; Dimethyl Sulfoxide (DMSO); Recombinant human soluble BACE1 catalytic domain (>95% pure); APP Swedish mutant peptide substrate (QSY7-APP^swe-Eu): QSY7-EISEVNLDAEFC-Europium-amide.
A homogeneous time-resolved FRET assay can be used to determine IC50 values for inhibitors of the soluble human BACE1 catalytic domain. This assay monitors the increase of 620 nm fluorescence that resulted from BACE1 cleavage of an APPswedish APP^swe mutant peptide FRET substrate (QSY7-EISEVNLDAEFC-Europium-amide). This substrate contains an N-terminal QSY7 moiety that serves as a quencher of the C-terminal Europium fluorophore (620 nm Em). In the absence of enzyme activity, 620 nm fluorescence is low in the assay and increased linearly over 3 hours in the presence of uninhibited BACE1 enzyme. Inhibition of BACE1 cleavage of the QSY7-APP^swe-Eu substrate by inhibitors is manifested as a suppression of 620 nm fluorescence.
Varying concentrations of inhibitors at 3× the final desired concentration in a volume of 10 ul are preincubated with purified human BACE1 catalytic domain (3 nM in 10 μl) for 30 minutes at 30° C. in reaction buffer containing 20 mM Na-Acetate pH 5.0, 10% glycerol, 0.1% Brij-35 and 7.5% DSMO. Reactions are initiated by addition of 10 μl of 600 nM QSY7-APP^swe-Eu substrate (200 nM final) to give a final reaction volume of 30 μl in a 384 well Nunc HTRF plate. The reactions are incubated at 30° C. for 1.5 hours. The 620 nm fluorescence is then read on a Rubystar HTRF plate reader (BMG Labtechnologies) using a 50 millisecond delay followed by a 400 millisecond acquisition time window. Inhibitor IC50 values are derived from non-linear regression analysis of concentration response curves. Ki values are then calculated from IC50 values using the Cheng-Prusoff equation using a previously determined […] of 8 μM for the QSY7-APP^swe-Eu substrate at BACE1.

[2] = molecular target: purified human autoBACE-2 (Homo sapiens (Human), UniProt Q9Y5Z0); test: BACE-2 Assay (BACE-HTRF assay); format: biochemical; conditions: Ki calculated from IC50 using the Cheng-Prusoff equation; QSY7-EISEVNLDAEFC-Eu-amide substrate, pH 5.0
Sequence of purified human autoBACE-2 (Q9Y5Z0 63-518): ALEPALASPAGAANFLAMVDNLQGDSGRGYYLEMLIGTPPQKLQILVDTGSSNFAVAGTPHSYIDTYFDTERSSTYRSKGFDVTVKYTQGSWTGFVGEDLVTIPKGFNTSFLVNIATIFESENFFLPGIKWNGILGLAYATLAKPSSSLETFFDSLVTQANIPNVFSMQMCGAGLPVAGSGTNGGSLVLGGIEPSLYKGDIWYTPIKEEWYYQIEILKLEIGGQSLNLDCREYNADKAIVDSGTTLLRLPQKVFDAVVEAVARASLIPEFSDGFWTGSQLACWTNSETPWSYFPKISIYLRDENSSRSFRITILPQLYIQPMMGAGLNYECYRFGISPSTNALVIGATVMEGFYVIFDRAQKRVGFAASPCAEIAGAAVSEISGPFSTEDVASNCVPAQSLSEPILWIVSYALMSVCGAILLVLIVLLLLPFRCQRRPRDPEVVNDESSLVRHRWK
Method: Inhibitor IC50s at purified human autoBACE-2 are determined in a time-resolved endpoint proteolysis assay that measures hydrolysis of the QSY7-EISEVNLDAEFC-Eu-amide FRET peptide substrate (BACE-HTRF assay). BACE-mediated hydrolysis of this peptide results in an increase in relative fluorescence (RFU) at 620 nm after excitation with 320 nm light. Inhibitor compounds, prepared at 3× the desired final concentration in 1×BACE assay buffer (20 mM sodium acetate pH 5.0, 10% glycerol, 0.1% Brij-35) supplemented with 7.5% DMSO are preincubated with an equal volume of autoBACE-2 enzyme diluted in 1×BACE assay buffer (final enzyme concentration 1 nM) in black 384-well NUNC plates for 30 minutes at 30° C. […] DMSO is present at 5% final concentration in the assay. Following laser excitation of sample wells at 320 nm, the fluorescence signal at 620 nm is collected for 400 ms following a 50 μs delay on a RUBYstar HTRF plate reader (BMG Labtechnologies). Raw RFU data is normalized to maximum (1.0 nM BACE/DMSO) and minimum (no enzyme/DMSO) RFU values. IC50s are determined by nonlinear regression analysis (sigmoidal dose response, variable slope) of percent inhibition data with minimum and maximum values set to 0 and 100 percent respectively. Similar IC50s are obtained when using raw RFU data. The Ki values are calculated from the IC50 using the Cheng-Prusoff equation.

C[C@H]1C[C@@H]2[C@](c3cc(Oc4ncccc4F)ccc3F)(CO1)NC(=N)C(C)(C)S2(=O)=O [Example 5, (4aS,7S,8aR)-4a-(2-fluoro-5-((3-fluoropyridin-2-yl)oxy)phenyl)-3-imino-2,2,7-trimethyloctahydropyrano[4,3-b][1,4]thiazine 1,1-dioxide]
Ki [1]: 17.5 nM | Ki [2]: 4.9 nM

CC1(C)C(=N)N[C@@]2(c3cc(Oc4cc(C#N)ccn4)ccc3F)CO[C@@H](c3ccc(F)cc3)C[C@H]2S1(=O)=O [Example 15, 2-(4-fluoro-3-((4aS,7R,8aR)-7-(4-fluorophenyl)-3-imino-2,2-dimethyl-1,1-dioxidooctahydropyrano[4,3-b][1,4]thiazin-4a-yl)phenoxy)isonicotinonitrile]
Ki [1]: 17.9 nM | Ki [2]: 19.8 nM

CC1(C)C(=N)N[C@@]2(c3cc(OCC4CC4)ccc3F)CO[C@@H](c3ccc(F)cc3)C[C@H]2S1(=O)=O [Example 13, (4aS,7R,8aR)-4a-(5-(cyclopropylmethoxy)-2-fluorophenyl)-7-(4-fluorophenyl)-3-imino-2,2-dimethyloctahydropyrano[4,3-b][1,4]thiazine 1,1-dioxide]
Ki [1]: 115 nM | Ki [2]: 11.7 nM
